Measurements published in US20200079793A1, “COMPOUNDS AND METHODS FOR MODULATING ADENOSINE A2B RECEPTOR AND ADENOSINE A2A RECEPTOR” (CORVUS PHARMACEUTICALS, INC., priority 2018, published 2020).

Tests used:
Adenosine A2B Receptor = target: T1, Adenosine A2B Receptor (Homo sapiens, UniProt P29275); experiment: Activity assay of adenosine receptor modulators, Adenosine A2B Receptor (Table 1); assay type: biochemical; conditions: cAMP; read-out: A2BR cAMP IC50
T1 sequence (P29275 1-332): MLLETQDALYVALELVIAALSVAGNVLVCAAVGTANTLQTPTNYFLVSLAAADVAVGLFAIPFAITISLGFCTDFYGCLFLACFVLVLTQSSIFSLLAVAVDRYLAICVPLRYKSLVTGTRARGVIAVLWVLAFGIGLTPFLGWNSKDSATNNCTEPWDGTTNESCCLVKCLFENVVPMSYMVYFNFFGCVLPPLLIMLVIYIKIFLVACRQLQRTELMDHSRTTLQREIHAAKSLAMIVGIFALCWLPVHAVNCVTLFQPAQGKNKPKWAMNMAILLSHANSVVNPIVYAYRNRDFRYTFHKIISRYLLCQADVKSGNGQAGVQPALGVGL
Description: (§1) Compounds (e.g., adenosine receptor modulators) were tested for its biological activity. The assay results in Table 1 indicate (+ means >1 μM; ++ means 100 nM to 1 μM; +++ means <100 nM).

Adenosine A2A Receptor = Adenosine A2A Receptor (Homo sapiens, UniProt P29274); experiment: Activity assay of adenosine receptor modulators, Adenosine A2A Receptor (Table 1); assay type: biochemical; conditions: cAMP; read-out: A2AR cAMP IC50
Sequence of Adenosine A2A Receptor (P29274 whole entry): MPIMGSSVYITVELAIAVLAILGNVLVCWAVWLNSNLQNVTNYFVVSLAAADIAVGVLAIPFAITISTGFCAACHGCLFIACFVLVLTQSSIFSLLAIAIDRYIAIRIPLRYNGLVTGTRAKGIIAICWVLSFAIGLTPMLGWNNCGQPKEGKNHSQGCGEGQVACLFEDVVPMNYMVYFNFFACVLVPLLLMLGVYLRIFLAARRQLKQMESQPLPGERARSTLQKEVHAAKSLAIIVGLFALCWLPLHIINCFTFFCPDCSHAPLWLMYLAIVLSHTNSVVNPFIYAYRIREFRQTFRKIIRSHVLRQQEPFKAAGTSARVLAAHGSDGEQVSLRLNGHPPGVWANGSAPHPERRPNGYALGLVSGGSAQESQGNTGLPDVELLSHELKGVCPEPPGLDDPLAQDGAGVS
Description: as §1

A1R = target: T2, A1R (Homo sapiens, UniProt P30542); experiment: Activity assay of adenosine receptor modulators, A1R cAMP (Table 1); assay type: cell-based
T2 sequence (P30542 1-326): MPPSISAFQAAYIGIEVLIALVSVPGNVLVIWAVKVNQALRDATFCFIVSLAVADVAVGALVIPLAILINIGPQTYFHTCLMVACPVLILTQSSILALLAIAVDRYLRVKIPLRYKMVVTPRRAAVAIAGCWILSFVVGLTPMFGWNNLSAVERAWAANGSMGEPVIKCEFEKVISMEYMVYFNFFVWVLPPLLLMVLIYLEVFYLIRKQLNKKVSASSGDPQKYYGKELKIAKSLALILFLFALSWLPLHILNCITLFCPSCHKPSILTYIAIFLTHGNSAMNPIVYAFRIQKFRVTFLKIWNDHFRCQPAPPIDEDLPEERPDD
Description: as §1

A3R = target: T3, A3R (Homo sapiens, UniProt P0DMS8); experiment: Activity assay of adenosine receptor modulators, A3R cAMP (Table 1); assay type: cell-based
T3 sequence (P0DMS8 1-318): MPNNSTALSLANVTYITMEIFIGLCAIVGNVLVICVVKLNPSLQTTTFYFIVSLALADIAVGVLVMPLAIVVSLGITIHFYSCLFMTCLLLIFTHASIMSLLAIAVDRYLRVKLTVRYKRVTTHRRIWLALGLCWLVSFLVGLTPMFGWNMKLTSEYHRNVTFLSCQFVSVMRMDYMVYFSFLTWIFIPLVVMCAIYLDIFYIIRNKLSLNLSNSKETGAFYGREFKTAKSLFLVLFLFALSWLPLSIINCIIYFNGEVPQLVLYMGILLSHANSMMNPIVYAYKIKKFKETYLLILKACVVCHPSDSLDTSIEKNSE
Description: as §1

SMILES	IC50 (Adenosine A2B Receptor) [nM]	IC50 (Adenosine A2A Receptor) [nM]	IC50 (A1R) [nM]	IC50 (A3R) [nM]
Cc1nc2nc(N[C@@H](C)c3cncc(F)c3)nc(C(=O)NCC3CCOCC3)c2s1 [Example 11, (S)-5-((1-(5-Fluoropyridin-3-yl)ethyl)amino)-2-methyl-N-((tetrahydro-2H-pyran-4-yl)methyl)thiazolo[4,5-d]pyrimidine-7-carboxamide]	< 100	100 to 1000	100 to 1000	> 1000
Cc1nc2nc(N[C@@H](C)c3cncc(F)c3)nc(C(=O)NC[C@@H]3CCOC3)c2s1 [Example 13, 5-(((S)-1-(5-Fluoropyridin-3-yl)ethyl)amino)-2-methyl-N—(((S)-tetrahydrofuran-3-yl)methyl)thiazolo[4,5-d]pyrimidine-7-carboxamide]	< 100	100 to 1000	100 to 1000	100 to 1000
Cc1nc2nc(N[C@@H](C)c3cncc(F)c3)nc(C(=O)NC[C@H]3CCOC3)c2s1 [Example 14, 5-(((S)-1-(5-Fluoropyridin-3-yl)ethyl)amino)-2-methyl-N—(((R)-tetrahydrofuran-3-yl)methyl)thiazolo[4,5-d]pyrimidine-7-carboxamide]	< 100	> 1000	100 to 1000	> 1000
Cc1nc2nc(N[C@@H](C)c3cccnc3)nc(C(=O)NC[C@H](C)O)c2s1 [Example 15, N—((S)-2-Hydroxypropyl)-2-methyl-5-(((S)-1-(pyridin-3-yl)ethyl)amino)thiazolo[4,5-d]pyrimidine-7-carboxamide]	< 100	> 1000	> 1000	> 1000
Cc1nc2nc(N[C@@H](C)c3cccnc3)nc(C(=O)N3CC[C@@H](O)C3)c2s1 [Example 16, ((R)-3-Hydroxypyrrolidin-1-yl)(2-methyl-5-(((S)-1-(pyridin-3-yl)ethyl)amino)thiazolo[4,5-d]pyrimidin-7-yl)methanone]	< 100	> 1000	> 1000	> 1000
Cc1nc2nc(N[C@@H](C)c3cccnc3)nc(C(=O)N3CC[C@H](O)C3)c2s1 [Example 18, ((S)-3-Hydroxypyrrolidin-1-yl)(2-methyl-5-(((S)-1-(pyridin-3-yl)ethyl)amino)thiazolo[4,5-d]pyrimidin-7-yl)methanone]	< 100	> 1000	> 1000	> 1000
Cc1nc2nc(N[C@@H](C)c3cncc(F)c3)nc(C(=O)NCCc3ccc(O)cc3)c2s1 [Example 21, (S)-5-((1-(5-Fluoropyridin-3-yl)ethyl)amino)-N-(4-hydroxyphenethyl)-2-methylthiazolo[4,5-d]pyrimidine-7-carboxamide]	< 100	> 1000	> 1000	> 1000
CC(=O)Nc1ccc(CCNC(=O)c2nc(N[C@@H](C)c3cncc(F)c3)nc3nc(C)sc23)cc1 [Example 24, (S)—N-(4-Acetamidophenethyl)-5-((1-(5-fluoropyridin-3-yl)ethyl)amino)-2-methylthiazolo[4,5-d]pyrimidine-7-carboxamide]	< 100	> 1000	> 1000	> 1000
CC(=O)NC1CN(C(=O)c2nc(N[C@@H](C)c3cncc(F)c3)nc3nc(C)sc23)C1 [Example 28, (S)—N-(1-(5-((1-(5-Fluoropyridin-3-yl)ethyl)amino)-2-methylthiazolo[4,5-d]pyrimidine-7-carbonyl)azetidin-3-yl)acetamide]	< 100	100 to 1000	> 1000	> 1000
CC(=O)N[C@@H]1CCN(C(=O)c2nc(N[C@@H](C)c3cncc(F)c3)nc3nc(C)sc23)C1 [Example 30, N—((R)-1-(5-(((S)-1-(5-Fluoropyridin-3-yl)ethyl)amino)-2-methylthiazolo[4,5-d]pyrimidine-7-carbonyl)pyrrolidin-3-yl)acetamide]	100 to 1000	> 1000	> 1000	> 1000
Cc1nc2nc(N[C@@H](C)c3cncc(F)c3)nc(C(=O)NCCc3ccc(S(N)(=O)=O)cc3)c2s1 [Example 31, (S)-5-((1-(5-Fluoropyridin-3-yl)ethyl)amino)-2-methyl-N-(4-sulfamoylphenethyl)thiazolo[4,5-d]pyrimidine-7-carboxamide]	< 100	> 1000	> 1000	> 1000
Cc1nc2nc(N[C@@H](C)c3cncc(F)c3)nc(C(=O)NCCC3CCNCC3)c2s1 [Example 32, (S)-5-((1-(5-Fluoropyridin-3-yl)ethyl)amino)-2-methyl-N-(2-(piperidin-4-yl)ethyl)thiazolo[4,5-d]pyrimidine-7-carboxamide]	< 100	> 1000	> 1000	> 1000
Cc1nc2nc(N[C@@H](C)c3cncc(F)c3)nc(C(=O)N3CC(NC(=O)C(C)(C)C)C3)c2s1 [Example 37, (S)—N-(1-(5-((1-(5-Fluoropyridin-3-yl)ethyl)amino)-2-methylthiazolo[4,5-d]pyrimidine-7-carbonyl)azetidin-3-yl)pivalamide]	< 100	< 100	> 1000	< 100
CCNC(=O)C1CCN(C(=O)c2nc(N[C@@H](C)c3cncc(F)c3)nc3nc(C)sc23)C1 (stereo partly drawn) [Example 38, N-ethyl-1-(5-(((S)-1-(5-fluoropyridin-3-yl)ethyl)amino)-2-methylthiazolo[4,5-d]pyrimidine-7-carbonyl)pyrrolidine-3-carboxamide]	< 100	> 1000	> 1000	> 1000

The next lines start with the values.

IC50 (Adenosine A2B Receptor) [nM]	IC50 (Adenosine A2A Receptor) [nM]	IC50 (A1R) [nM]	IC50 (A3R) [nM]	SMILES
< 100	100 to 1000	> 1000	100 to 1000	Cc1nc2nc(N[C@@H](C)c3ccccn3)nc(C(=O)N3CCCC3)c2s1 [Example 9, (S)-(2-Methyl-5-((1-(pyridin-2-yl)ethyl)amino)thiazolo[4,5-d]pyrimidin-7-yl)(pyrrolidin-1-yl)methanone]
< 100	> 1000	> 1000	> 1000	Cc1nc2nc(N[C@@H](C)c3cccnc3)nc(C(=O)NC[C@@H](C)O)c2s1 [Example 12, N—((R)-2-Hydroxypropyl)-2-methyl-5-(((S)-1-(pyridin-3-yl)ethyl)amino)thiazolo[4,5-d]pyrimidine-7-carboxamide]
< 100	> 1000	> 1000	> 1000	Cc1nc2nc(N[C@@H](C)c3ccccn3)nc(C(=O)N3CC[C@H](O)C3)c2s1 [Example 17, ((S)-3-Hydroxypyrrolidin-1-yl)(2-methyl-5-(((S)-1-(pyridin-2-yl)ethyl)amino)thiazolo[4,5-d]pyrimidin-7-yl)methanone]
< 100	100 to 1000	> 1000	> 1000	COCCNC(=O)c1nc(N[C@@H](C)c2cncc(F)c2)nc2nc(C)sc12 [Example 25, (S)-5-((1-(5-Fluoropyridin-3-yl)ethyl)amino)-N-(2-methoxyethyl)-2-methylthiazolo[4,5-d]pyrimidine-7-carboxamide]
< 100	100 to 1000	> 1000	100 to 1000	CC(=O)N[C@H]1CCN(C(=O)c2nc(N[C@@H](C)c3cncc(F)c3)nc3nc(C)sc23)C1 [Example 29, N—((S)-1-(5-(((S)-1-(5-Fluoropyridin-3-yl)ethyl)amino)-2-methylthiazolo[4,5-d]pyrimidine-7-carbonyl)pyrrolidin-3-yl)acetamide]
< 100	> 1000	> 1000	> 1000	Cc1nc2nc(N[C@@H](C)c3cncc(F)c3)nc(C(=O)N3CC(C(N)=O)C3)c2s1 [Example 33, (S)-1-(5-((1-(5-Fluoropyridin-3-yl)ethyl)amino)-2-methylthiazolo[4,5-d]pyrimidine-7-carbonyl)azetidine-3-carboxamide]
< 100	> 1000	> 1000	> 1000	CC(=O)NCC1CN(C(=O)c2nc(N[C@@H](C)c3cncc(F)c3)nc3nc(C)sc23)C1 [Example 39, (S)—N-((1-(5-((1-(5-Fluoropyridin-3-yl)ethyl)amino)-2-methylthiazolo[4,5-d]pyrimidine-7-carbonyl)azetidin-3-yl)methyl)acetamide]
